Assay results published in the CheMixHub ionic liquid set.

Assay: xn = mol fraction of the nth substance listed

CC1CNCCN1 (configuration not stated) + CC(=O)[O-].CCCC[n+]1ccn(C)c1 + O
viscosity [mPa·s], 100 kPa
Conditions	298.15 K	303.15 K	308.15 K	313.15 K	318.15 K	323.15 K	328.15 K	333.15 K
x2 = 0.04327, x1 = 0.02647	3.46	3.23	2.82	2.64	2.39	1.91	1.31	1.16
x2 = 0.05132, x1 = 0.01784	3.58	3.38	3.16	3.02	2.84	2.52	2.47	1.83
x2 = 0.05944, x1 = 0.009089	4.03	3.78	3.72	3.24	3.11	2.89	2.54	2.03

CCCCCCCCCCCCCCCCCC[n+]1ccn(C)c1.O=S(=O)([N-]S(=O)(=O)C(F)(F)F)C(F)(F)F + CCCCCCCCCCCCCC[n+]1ccn(C)c1.O=S(=O)([N-]S(=O)(=O)C(F)(F)F)C(F)(F)F
Conditions	viscosity [mPa·s]
323 K, 101 kPa, x2 = 0.7675	62.9

COCCOCCOCCOCCOC + CCCCCC[n+]1ccn(C)c1.O=S(=O)([N-]S(=O)(=O)C(F)(F)F)C(F)(F)F
Conditions	viscosity [mPa·s]
288.15 K, 100 kPa, x1 = 0.099	96

CCCC[n+]1ccn(C)c1.O=S(=O)([N-]S(=O)(=O)C(F)(F)F)C(F)(F)F + O=C1CCCCO1
100 kPa, frequency 0.01 MHz, x1 = 1
Conditions	electrical conductivity [S/m]
298.15 K	0.4
318.15 K	0.733

CCCC[n+]1ccn(C)c1.O=S(=O)([N-]S(=O)(=O)C(F)(F)F)C(F)(F)F + N
Conditions	viscosity [mPa·s]
313.2 K, 101 kPa, x1 = 1	27.3

CC(O)C(=O)[O-].CCOCCn1cc[n+](C)c1 + O
100 kPa
Conditions	electrical conductivity [S/m]	viscosity [mPa·s]
293.15 K, x1 = 0.8093	0.292	70.03
293.15 K, x1 = 0.8365	0.261	74.7
293.15 K, x1 = 0.9017	0.2	85.7
298.15 K, x1 = 0.8702	0.276	60.47
303.15 K, x1 = 0.938	0.274	52.44
308.15 K, x1 = 0.8093	0.498	31.76
308.15 K, x1 = 0.8365	0.464	33.56
308.15 K, x1 = 0.8702	0.43	35.75
318.15 K, x1 = 0.9017	0.617	22.56

CN(C)C=O + CCCCCC[n+]1ccn(C)c1.[Cl-]
101 kPa, x1 = 1
Conditions	viscosity [mPa·s]
288.15 K	0.94
298.15 K	0.82

CCCC[n+]1ccn(C)c1.F[P-](F)(F)(F)(F)F + ClC(Cl)Cl
298.15 K, 101 kPa
Conditions	electrical conductivity [S/m]	viscosity [mPa·s]
x2 = 0	0.157	260
x2 = 0.0857	0.199	200
x2 = 0.1741	0.253	144
x2 = 0.2614	0.319	103
x2 = 0.3625	0.411	68.4
x2 = 0.4608	0.519	43
x2 = 0.5633	0.644	25
x2 = 0.6683	0.726	13.1
x2 = 0.7326	0.729	10
